Results: US12116421B2, “Peptide-based Dopa containing adhesive gels” (KING ABDULLAH UNIVERSITY OF SCIENCE AND TECHNOLOGY, priority 2020, dated 2024)
Where a SMILES comes first, the peptide text is derived from it. [ ]: non-standard residue; d: D form. Dopa = N[C@@H](Cc1ccc(O)c(O)c1)C(=O)O; Cha = N[C@@H](CC1CCCCC1)C(=O)O

What was measured:
[1] = tested on: Acropora fragments; assay: Coral fragments glued to a tile in sea water, selection of best glue; assay type: in vivo, Acropora spp.; conditions: for survival rate of the coral fragments: after 3 days, tile in aquarium with running seawater; for Survival after 3 days in the aquarium / Survival after attachment: number of Acropora fragments of n = 3; for time to detachment of glued fragments under water: DoIIZK: one of the fragments, IIZDoK: all fragments
Method: In one embodiment, coral fragments were attached to a tile using DoIIZK, IIZDoK, IIZKDo as a glue. The tile, to which the coral fragments were attached, has a size 10×10 cm and was placed into a shallow aquarium supplied with running seawater.
In one embodiment, the survival rate of the coral fragments fixed with DoIIZK was 67%, whereas the survival rate glued with IIZDoK and IIZKDo were respectively 0% and 100%, after 3 days.
The different glues were prepared at the same concentration of 40 mg/mL for DoIIZK, IIZDoK and IIZKDo. Then, the coral fragments were adhered to the surface of the tiles by applying gentle pressure as following: triplicates in the first line with DoIIZK as a glue, second line with IIZDoK and last line with IIZKDo. The experiment setup is illustrated in FIG. 40. The tiles were afterwards placed underwater in a tank containing filtered sea water. One of the fragments that was glued with DoIIZK detached less than 15 minutes after we placed the tile under water and all of the fragments that were glued with IIZDoK detached around 30 minutes after they have been placed under water.

[2] = Raman spectroscopy of secondary structure of the peptides; assay type: physicochemical; conditions: 1×PBS, 5 mg/mL, integrated area under Raman peak
Method: In one embodiment, the secondary structure of the IIZDoK peptide contains a larger amount of α-helix structure than DoIIZK and IIZKDo peptides that preferentially contain β-turn, as can be appreciated in the Raman spectroscopy signatures of the three peptides.
Raman spectroscopy measurements were performed on DoIIZK, IIZDoK and IIZKDo at 5 mg/mL concentration in 1×PBS buffer or on dry powder samples after deposition on CaF2 slide. Witec Alpha 300 RA confocal Raman spectrometer equipped with Andor CCD camera (DU970N thermoelectrically cooled at −75° C.) was used to perform the Raman measurements in backscattered configuration. The samples were excited through a 50× objective (Zeiss® LD EC Epiplan-Neofluar) with linearly polarized 532 nm wavelength excitation laser. For the analysis, the spectra were cosmic rays removed, baseline subtracted with a polynomial of 5th order, and averaged after normalization to the 1450 cm^−1 peak intensity. Several Voigt functions were fitted setting the peaks at 1653±3, 1663±3 and 1680±3 cm^−1, corresponding to α-helix, β-turn and unordered β-turn respectively, with a FWHM set to a max value of 25 cm^−1. An additional peak at about 1635 cm^−1 was introduced into the fitting to account for contributions from water, lysine and isoleucine Raman shifts.^11

[3] = tested on: mouse myoblast cells (C2C12); assay: Cytocompatibility of peptide nanogels, 3D culture, MTT and live/dead staining; assay type: cell-based
Method: In one embodiment, cytocompatibility of the peptide nanogels was evaluated using mouse myoblast cells (C2C12). After 24 hours of incubation, cell proliferation was tested with DoIIZK, IIZDoK, IIZKDo, IIZ(KDo)2 and IIZ(KDo)3 at a concentration of 3 mg/mL to evaluate biocompatibility. The MTT (3-(4,5-dimethylthiazol-2-yl)-2,5-diphenyltetrazolium bromide) assay was used in order to quantify the number of viable cells. In one embodiment, a standard curve for a known number of cells was also plotted. In one embodiment, the test results were compared to the positive control 2D culture. A positive indication of cytocompatibility would be the survival of the cells following incubation with the peptides. For comparison, peptides DoIIZK, IIZDoK, IIZKDo, IIZ(KDo)2 and IIZ(KDo)3 were tested as part of the study. The cytocompatibilty of all peptides tested was evaluated by quantifying the survival cells by visualising the live/dead cells using calcein AM and Ethidium bromide staining.
Poli-D Lysine (PDL) was used for 2D control. The scalebar in FIG. 35 is 200 μm. Cytocompatibility of all peptides was evaluated by quantifying the survival cells by visualising the live/dead cells using calcein AM and Ethidium homodimer staining. The live cells are stained green by calcein AM, while the dead cells are stained red by Ethidium homodimer.
For mouse myoblast cells (C2C12) culture expansion, C2C12 cells were cultured either in a T175 or T75 culture flask in complete DMEM media (10% FBS and 1% P/S). The cells were placed in a humidified incubator at 37° C., with 95% air and 5% CO2. Then they were subcultured using trypsin at approximately 80% confluence. Fresh culture media was added every 48 h to each well, after removing the previous media.
For 3D culture of mouse myoblast cells in peptide hydrogels and cell viability assay, C2C12 cells were encapsulated in peptide hydrogels in a 96-well plate.^61 Briefly, peptide solutions DopaIIZK, IIZDopaK, IIZKDopa (3 mg/mL) were added to 40 μL/well. Mouse myoblast cells (30,000 cells/well) that were re-suspended in 2×PBS were then, mixed gently with the peptide solutions. The gelation time was 1-3 min for all 5 peptides. Subsequently, the culture medium was added to the wells.
The viability of 3D cultured cells was assessed using the LIVE/DEAD Viability/Cytotoxicity Kit (ThermoFisher®, USA)^11. Calcein acetoxymethyl ester (Calcein-AM) is used to detect viable cells and ethidium homodimer-I (EthD-I) is used to detect dead cells. Briefly, staining with 2 μM of Calcein-AM and 4 μM of EthD-1 is performed after washing with Dulbecco's phosphate-buffered saline (D-PBS). After 30 minutes incubation, the staining solution was discarded, and 1×D-PBS was added to each well before imaging. Stained cells were imaged with an inverted confocal microscope (Zeiss® LSM 710 Inverted Confocal Microscope, Germany) or ZEISS® fluorescent microscope.

[4] = glue 40 mg/mL, tile in filtered sea water

**Q.** For `CC[C@H](C)[C@H](NC(C)=O)C(=O)N[C@H](C(=O)N[C@@H](CC1CCCCC1)C(=O)N[C@@H](CCCCN)C(=O)N[C@@H](Cc1ccc(O)c(O)c1)C(N)=O)[C@@H](C)CC` [IIZKDo, Ac-Ile-Ile-Cha-Lys-Dopa-NH2] (Ac-II[Cha]K[Dopa]-NH2), which “survival rate of the coral fragments” value [1] is on record?
**A.** 100%

**Q.** And the “fragments sticking to the tile after 17 days” value ([1]; glue 40 mg/mL, tile in filtered sea water, triplicates)?
**A.** still all sticking to the tile after 17 days

**Q.** And the “Survival after 3 days in the aquarium” value [1]?
**A.** 3

**Q.** And the Survival after attachment [1]?
**A.** 3

**Q.** What about the “Disordered structure Area %” value [2] of the same compound?
**A.** 1690; 18%

**Q.** And the “α-helix Area %” value [2]?
**A.** 1658; 18%

**Q.** And the “β-turn Area %” value [2]?
**A.** 1666; 64%

**Q.** And the “biocompatibility with C2C12 cells” value [3]?
**A.** biocompatible

**Q.** What about the “cell viability / toxicity” value [3] of the same compound?
**A.** good viability

**Q.** And the “metabolic activity of cells versus 2D cultures” value [3]?
**A.** consistently comparable to 2D cultures

**Q.** And the “time cells stay metabolically active in nanogel” value [3]?
**A.** metabolically active for up to day 21

**Q.** Which results are given for `CC[C@H](C)[C@H](NC(=O)[C@H](Cc1ccc(O)c(O)c1)NC(C)=O)C(=O)N[C@H](C(=O)N[C@@H](CC1CCCCC1)C(=O)N[C@@H](CCCCN)C(N)=O)[C@@H](C)CC` [DoIIZK, Ac-Dopa-Ile-Ile-Cha-Lys-NH2] (Ac-[Dopa]II[Cha]K-NH2)?
**A.** survival rate of the coral fragments [1]: 67%; time to detachment of glued fragments under water [1, 4]: less than 15 minutes; Survival after 3 days in the aquarium [1]: 2; Survival after attachment [1]: 3; Disordered structure Area % [2]: 1687; 22%; α-helix Area % [2]: 1650; 13%; β-turn Area % [2]: 1665; 65%; biocompatibility with C2C12 cells [3]: biocompatible; cell viability / toxicity [3]: good viability; metabolic activity of cells versus 2D cultures [3]: consistently comparable to 2D cultures; time cells stay metabolically active in nanogel [3]: metabolically active for up to day 21

**Q.** Which “survival rate of the coral fragments” value [1] does the source give for `CC[C@H](C)[C@H](NC(C)=O)C(=O)N[C@H](C(=O)N[C@@H](CC1CCCCC1)C(=O)N[C@@H](Cc1ccc(O)c(O)c1)C(=O)N[C@@H](CCCCN)C(N)=O)[C@@H](C)CC` [IIZDoK, Ac-Ile-Ile-Cha-Dopa-Lys-NH2] (Ac-II[Cha][Dopa]K-NH2) here?
**A.** 0%

**Q.** What about the “time to detachment of glued fragments under water” value [1, 4] of the same compound?
**A.** around 30 minutes

**Q.** What about the “Survival after 3 days in the aquarium” value [1] of the same compound?
**A.** 0

**Q.** What about the Survival after attachment [1] of the same compound?
**A.** 3

**Q.** What about the “Disordered structure Area %” value [2] of the same compound?
**A.** 1690; 16%

**Q.** And the “α-helix Area %” value [2]?
**A.** 1656; 40%

**Q.** And the “β-turn Area %” value [2]?
**A.** 1666; 44%

**Q.** And the “biocompatibility with C2C12 cells” value [3]?
**A.** biocompatible

**Q.** And the “cell viability / toxicity” value [3]?
**A.** good viability

**Q.** What about the “metabolic activity of cells versus 2D cultures” value [3] of the same compound?
**A.** consistently comparable to 2D cultures

**Q.** What about the “time cells stay metabolically active in nanogel” value [3] of the same compound?
**A.** metabolically active for up to day 21
